Reference: PubChem BioAssay AID1259407 (Chemical Carcinogenesis Research Information System (CCRIS), 2018)
Activity calls are given as the source filed them. No rule for the calls is given here.

Tested on: CCRIS mutagenicity, Ames/micronucleus/aberration tests
Test: CCRIS mutagenicity studies
Details: Test System: AMES SALMONELLA TYPHIMURIUM
[1] = Strain/Indicator: TA98, Metabolic Activation: NONE, Method: PREINCUBATION
[2] = Strain/Indicator: TA100, Metabolic Activation: NONE, Method: PREINCUBATION
[3] = Strain/Indicator: TA1535, Metabolic Activation: NONE, Method: PREINCUBATION

Structure (SMILES): CCC(C(N)=O)(C(N)=O)c1ccccc1
- mutagenic call (Strain/Indicator: TA97, Metabolic Activation: HAMSTER, LIVER, S-9, AROCLOR 1254 (10 OR 30%), Method: PREINCUBATION): inactive; negative
- mutagenic call (Strain/Indicator: TA97, Metabolic Activation: NONE, Method: PREINCUBATION): inactive; negative
- mutagenic call (Strain/Indicator: TA97, Metabolic Activation: RAT, LIVER, S-9, AROCLOR 1254 (10 OR 30%), Method: PREINCUBATION): inactive; negative
- mutagenic call (Strain/Indicator: TA98, Metabolic Activation: HAMSTER, LIVER, S-9, AROCLOR 1254 (10 OR 30%), Method: PREINCUBATION): inactive; negative
- mutagenic call [1]: inactive; negative
- mutagenic call (Strain/Indicator: TA98, Metabolic Activation: RAT, LIVER, S-9, AROCLOR 1254 (10 OR 30%), Method: PREINCUBATION): inactive; negative
- mutagenic call (Strain/Indicator: TA100, Metabolic Activation: HAMSTER, LIVER, S-9, AROCLOR 1254 (10 OR 30%), Method: PREINCUBATION): inactive; negative
- mutagenic call [2]: inactive; negative
- mutagenic call (Strain/Indicator: TA100, Metabolic Activation: RAT, LIVER, S-9, AROCLOR 1254 (10 OR 30%), Method: PREINCUBATION): inactive; negative
- mutagenic call (Strain/Indicator: TA1535, Metabolic Activation: HAMSTER, LIVER, S-9, AROCLOR 1254 (10 OR 30%), Method: PREINCUBATION): inactive; negative
- mutagenic call [3]: inactive; negative
- mutagenic call (Strain/Indicator: TA1535, Metabolic Activation: RAT, LIVER, S-9, AROCLOR 1254 (10 OR 30%), Method: PREINCUBATION): inactive; negative

Structure (SMILES): O=[N+]([O-])c1ccccc1CCO
- mutagenic call (Strain/Indicator: TA98, Metabolic Activation: HAMSTER, LIVER, S-9, AROCLOR 1254 (10%), Method: PREINCUBATION): inactive; negative
- mutagenic call (Strain/Indicator: TA98, Metabolic Activation: HAMSTER, LIVER, S-9, AROCLOR 1254 (30%), Method: PREINCUBATION): inactive; negative
- mutagenic call [1]: inactive; negative
- mutagenic call (Strain/Indicator: TA98, Metabolic Activation: RAT, LIVER, S-9, AROCLOR 1254 (10%), Method: PREINCUBATION): inactive; negative
- mutagenic call (Strain/Indicator: TA98, Metabolic Activation: RAT, LIVER, S-9, AROCLOR 1254 (30%), Method: PREINCUBATION): inactive; negative
- mutagenic call (Strain/Indicator: TA100, Metabolic Activation: HAMSTER, LIVER, S-9, AROCLOR 1254 (10%), Method: PREINCUBATION): inactive; negative
- mutagenic call (Strain/Indicator: TA100, Metabolic Activation: HAMSTER, LIVER, S-9, AROCLOR 1254 (30%), Method: PREINCUBATION): active; positive
- mutagenic call [2]: inactive; negative
- mutagenic call (Strain/Indicator: TA100, Metabolic Activation: RAT, LIVER, S-9, AROCLOR 1254 (5%), Method: PREINCUBATION): inactive; negative
- mutagenic call (Strain/Indicator: TA100, Metabolic Activation: RAT, LIVER, S-9, AROCLOR 1254 (10%), Method: PREINCUBATION): inactive; negative
- mutagenic call (Strain/Indicator: TA100, Metabolic Activation: RAT, LIVER, S-9, AROCLOR 1254 (30%), Method: PREINCUBATION): inactive; negative
- mutagenic call (Strain/Indicator: TA1535, Metabolic Activation: HAMSTER, LIVER, S-9, AROCLOR 1254 (10%), Method: PREINCUBATION): inactive; negative
- mutagenic call [3]: inactive; negative
- mutagenic call (Strain/Indicator: TA1535, Metabolic Activation: RAT, LIVER, S-9, AROCLOR 1254 (10%), Method: PREINCUBATION): inactive; negative
- mutagenic call (Strain/Indicator: TA1537, Metabolic Activation: HAMSTER, LIVER, S-9, AROCLOR 1254 (10%), Method: PREINCUBATION): inactive; negative
- mutagenic call (Strain/Indicator: TA1537, Metabolic Activation: NONE, Method: PREINCUBATION): inactive; negative
- mutagenic call (Strain/Indicator: TA1537, Metabolic Activation: RAT, LIVER, S-9, AROCLOR 1254 (10%), Method: PREINCUBATION): inactive; negative

Structure (SMILES): O=[N+]([O-])c1cccc2cnsc12
- mutagenic call (Strain/Indicator: TA100, Metabolic Activation: NONE, Method: STANDARD PLATE): active; positive

Structure (SMILES): CCOC(=O)CN=[N+]=[N-]
- mutagenic call (Strain/Indicator: TA1530, Metabolic Activation: NONE, Method: STANDARD PLATE): active; positive
